Read-outs that look alike come from different tables or passages of the source.
Tests used:
[1] = biological target: T1, BSA (Bos taurus, UniProt P02769); set-up: Intact protein LC/MS covalent labelling, fragments in pools of five, 200 uM each, 4 °C; settings: 24 h, 4 °C, pool of five; 200 µM; covalent
T1 construct: gene ALB

[2] = biological target: T2, NUDT7 (Homo sapiens, UniProt P0C024); set-up: Intact protein LC/MS covalent labelling, fragments in pools of five, 200 uM each, 4 °C; settings: 24 h, 4 °C, pool of five; 200 µM; covalent
T2 construct: residues 14-235, E. coli, pNIC28-Bsa4, N-terminal His6 tag removed by TEV, construct 26672 Da
T2 sequence (P0C024 14-235): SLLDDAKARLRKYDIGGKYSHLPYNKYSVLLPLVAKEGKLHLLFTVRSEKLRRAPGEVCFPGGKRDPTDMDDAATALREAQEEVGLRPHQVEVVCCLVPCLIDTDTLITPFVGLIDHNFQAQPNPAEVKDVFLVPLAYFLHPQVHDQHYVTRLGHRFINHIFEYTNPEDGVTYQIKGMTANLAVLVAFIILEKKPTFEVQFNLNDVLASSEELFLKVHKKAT

[3] = biological target: T3, OTUB2 (OTUB2A) (Homo sapiens, UniProt Q96DC9); set-up: Intact protein LC/MS covalent labelling, fragments in pools of five, 200 uM each, 4 °C; settings: 24 h, 4 °C, pool of five; 200 µM; covalent
T3 construct: full length residues 1-234, E. coli BL21(DE3)-R3, His tag removed by TEV, construct 27312 Da
T3 sequence (Q96DC9 1-234): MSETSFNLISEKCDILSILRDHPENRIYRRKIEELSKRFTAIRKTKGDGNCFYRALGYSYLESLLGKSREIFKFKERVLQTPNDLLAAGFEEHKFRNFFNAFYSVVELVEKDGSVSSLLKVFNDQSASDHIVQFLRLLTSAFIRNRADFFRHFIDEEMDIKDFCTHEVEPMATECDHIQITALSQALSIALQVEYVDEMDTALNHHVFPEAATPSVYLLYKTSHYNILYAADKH

[4] = biological target: T4, PCAF (Homo sapiens, UniProt Q92831); set-up: Intact protein LC/MS covalent labelling, fragments in pools of five, 200 uM each, 4 °C; settings: 24 h, 4 °C, pool of five; 200 µM; covalent
T4 construct: gene KAT2B
T4 sequence (Q92831 whole entry, the tested form may be a part): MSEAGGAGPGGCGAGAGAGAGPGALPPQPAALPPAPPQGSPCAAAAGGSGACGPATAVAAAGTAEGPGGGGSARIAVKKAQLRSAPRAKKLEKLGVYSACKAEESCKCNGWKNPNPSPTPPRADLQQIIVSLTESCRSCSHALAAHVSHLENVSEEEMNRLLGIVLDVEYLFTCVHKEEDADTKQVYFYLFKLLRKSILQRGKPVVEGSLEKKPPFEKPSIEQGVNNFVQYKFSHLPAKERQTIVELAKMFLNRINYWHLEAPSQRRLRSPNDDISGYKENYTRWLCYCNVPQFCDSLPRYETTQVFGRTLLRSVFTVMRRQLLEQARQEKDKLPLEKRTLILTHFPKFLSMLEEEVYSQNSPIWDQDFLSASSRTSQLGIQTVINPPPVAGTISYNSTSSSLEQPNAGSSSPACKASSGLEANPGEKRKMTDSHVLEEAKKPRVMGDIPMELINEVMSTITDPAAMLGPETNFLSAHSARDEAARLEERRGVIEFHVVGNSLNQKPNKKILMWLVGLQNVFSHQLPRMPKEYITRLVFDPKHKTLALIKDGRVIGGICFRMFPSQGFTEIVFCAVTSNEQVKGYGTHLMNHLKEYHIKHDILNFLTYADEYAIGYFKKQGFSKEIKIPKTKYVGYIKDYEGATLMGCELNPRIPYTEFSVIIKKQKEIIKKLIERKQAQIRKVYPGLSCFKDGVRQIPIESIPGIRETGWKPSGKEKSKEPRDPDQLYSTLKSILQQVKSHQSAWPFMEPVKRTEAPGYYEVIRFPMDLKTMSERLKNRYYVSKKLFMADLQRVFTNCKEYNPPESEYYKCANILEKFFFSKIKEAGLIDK

[5] = in vitro; set-up: species or system CCD841, HEK293; settings: human, hb2 cells, read-out: HB-2 Cells Viability (%)
[6] = in vitro; set-up: species or system HB2, HEK293; settings: human, ccd841 cells
[7] = in vitro; set-up: species or system HB2, CCD841; settings: human, hek293 cells

T1 sequence (P02769 whole entry, the tested form may be a part): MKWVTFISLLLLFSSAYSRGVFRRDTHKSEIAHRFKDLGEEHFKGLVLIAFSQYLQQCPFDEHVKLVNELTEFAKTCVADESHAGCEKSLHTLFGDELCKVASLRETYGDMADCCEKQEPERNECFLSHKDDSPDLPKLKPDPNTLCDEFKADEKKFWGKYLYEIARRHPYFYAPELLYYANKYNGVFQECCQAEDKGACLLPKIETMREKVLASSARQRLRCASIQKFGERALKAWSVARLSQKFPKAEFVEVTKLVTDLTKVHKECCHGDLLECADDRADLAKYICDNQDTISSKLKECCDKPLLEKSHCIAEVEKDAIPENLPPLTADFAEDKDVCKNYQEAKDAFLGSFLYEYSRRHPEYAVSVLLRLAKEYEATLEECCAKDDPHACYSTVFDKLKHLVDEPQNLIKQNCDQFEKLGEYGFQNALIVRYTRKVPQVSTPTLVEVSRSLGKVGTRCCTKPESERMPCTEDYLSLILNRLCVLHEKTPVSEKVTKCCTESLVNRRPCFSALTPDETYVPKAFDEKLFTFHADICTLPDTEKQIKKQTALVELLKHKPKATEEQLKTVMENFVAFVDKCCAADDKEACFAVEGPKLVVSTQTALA

SMILES	BSA [1]	NUDT7 [2]	OTUB2 [3]	PCAF [4]	viability at 48 h, 10 µM [5] [%]	viability at 48 h, 10 µM [6] [%]	viability at 48 h, 10 µM [7] [%]
O=C(CCl)NCc1ccco1 [PCM-0102671]	0	0	0.35	0	102	86	86.2
CN(Cc1ccco1)C(=O)CCl [PCM-0102672]	0	0.1	0	0	51.9	78.1	49.1
CN(CC(F)(F)F)C(=O)CCl [PCM-0102674]	0	0.11	0	0	101	105	101
O=C(CCl)N1CCCC(C(F)(F)F)C1 (stereo not shown) [PCM-0102676]	0	0.14	0	0	44.7	88.5	54.4
C=CC(=O)N1CC(O)CC1c1ccccc1C(F)(F)F (stereo not shown) [PCM-0102677]	0	0	0	0	98.4	108	109
CN(Cc1cc(Cl)cc(Cl)c1)C(=O)CCl [PCM-0102678]	0	0.45	0	0	8.3	22	22
C=CC(=O)N1Cc2c(OC)ccc(OC)c2C(O)C1 (stereo not shown) [PCM-0102680]	0.1	0	0.08	0	104	135	119
C=CC(=O)N1CCN(C(=O)C23CC4CC(CC(C4)C2)C3)CC1 [PCM-0102682]	0	0	0	0	102	103	72.7
C=CC(=O)N1CCCC1c1cc(C)on1 (stereo not shown) [PCM-0102683]	0	0	0.12	0	103	101	121
C=CC(=O)N1CC(OC(=O)Nc2cccc(F)c2)C1 [PCM-0102688]	0	0	0.17	0	82.3	99	95.8
C=CC(=O)N1CCCC(c2nc(-c3cccc(F)c3)no2)C1 (stereo not shown) [PCM-0102689]	0	0	0	0	101	97.4	89.4
C=CC(=O)N1CCC2(CC1)CNC(=O)C2 [PCM-0102690]	0	0	0	0	100	107	95.1
C=CC(=O)NCC1(O)CCS(=O)(=O)CC1 [PCM-0102691]	0	0	0.2	0	104	104	103
O=C(CCl)N1CCCC1c1ccsc1 (stereo not shown) [PCM-0102693]	0	0.2	0	0	11.7	37.7	4.6
O=C(CCl)NC(=O)c1cccc2ccccc12 [PCM-0102694]	0	0	0	0	101	112	111
C=CC(=O)Nc1nc2ccccc2s1 [PCM-0102695]	0	0.18	0	0	33.8	50.3	51.9

Reference: publication PMC6556873, “Rapid Covalent-Probe Discovery by Electrophile-Fragment Screening” (Journal of the American Chemical Society, 2019)
